According to paper PMC8579695, “The Stringent Response Inhibits 70S Ribosome Formation in Staphylococcus aureus by Impeding GTPase-Ribosome Interactions” (mBio, 2021):

Columns and labels:
[1] = system: RA-GTPases RsgA, RbgA, Era, and HflX; test: DRaCALA binding and competition assays across the four RA-GTPases; design: species or system Staphylococcus aureus; conditions: 100 μM cold competitor
From the text: FIG 1 Nucleotide binding characteristics of RA-GTPases. (A) Schematic representation of the domain structure of Era, RsgA, RbgA, and HflX from S. aureus. The conserved GTPase domain (G domain) is colored in green, and accessory domains are shown. (B) Determination of binding affinities and Kd values for ^32P-labeled GTP, GDP, ppGpp, and pppGpp with purified recombinant 6×His-tagged RbgA using DRaCALA, as previously described ([36]). Each point is the mean average of at least three technical replicates, and error bars indicate standard deviations. (C) Binding assay (DRaCALA) of recombinant RbgA binding to ^32P-labeled GTP, ppGpp, and pppGpp in the presence of an excess of cold competitor (GTP, GDP, ppGpp, pppGpp, or ATP). All experiments were carried out in triplicate, with error bars representing standard deviations. […]
Supplementary file : FIG S2 Examination of the binding of GDP, ppGpp, GTP, and pppGpp to RA-GTPases by DRaCALA. […] Kd values were determined from the binding curves as previously described ([36]). […]
Structural data places (p)ppGpp within the GTP-binding site of the RA-GTPase RbgA ([6]), indicating a competitive mode of inhibition. […] Based on our measured affinities (Table 1), we speculate that both GDP and ppGpp will outcompete other nucleotides for occupancy of the binding site. […]

[2] = system: RA-GTPases RsgA, RbgA, Era, and HflX; test: Hydrolysis of pppGpp by the RA-GTPases; format: biochemical, Staphylococcus aureus
From the text: It is well characterized that rRNA transcription decreases during the stringent response ([39]). In addition, the GTPase activity of ribosome assembly cofactors is inhibited by (p)ppGpp, both of which contribute to a reduction in mature ribosomes within the cell ([27]). To examine mechanistically how (p)ppGpp-GTPase interactions affect the ability of RA-GTPases to associate with ribosomal subunits, we examined the association of each GTPase to either the 30S or 50S ribosomal subunit in the presence of GDP, GTP, ppGpp, and pppGpp, as well as GMPPNP, a nonhydrolyzable analogue of GTP. […] His-tagged GTPases were preincubated with highly pure, salt-washed 70S S. aureus ribosomes in a low-magnesium buffer to encourage ribosomal subunit dissociation, and the amount of each GTPase associated with each of the subunits was quantified by Western immunoblotting with anti-His antibodies after sucrose gradient separation. […]
GTPase activity assays were performed as previously described ([10]). […] The radioactive spots were exposed to a BAS-MS imaging plate (Fujifilm) and visualized using an LA 7000 Typhoon PhosphorImager (GE Healthcare), and images were quantified using ImageQuant (GE Healthcare).

| SMILES | competition of cold unlabeled nucleotide with 32P-labeled GTP, ppGpp, pppGpp [1] | hydrolysis of pppGpp by the four RA-GTPases [2] |
| --- | --- | --- |
| Nc1nc2c(ncn2[C@@H]2O[C@H](COP(=O)(O)OP(=O)(O)O)[C@@H](OP(=O)(O)OP(=O)(O)O)[C@H]2O)c(=O)[nH]1 [ppGpp] | competing more effectively |  |
| Nc1nc2c(ncn2[C@@H]2O[C@H](COP(=O)(O)OP(=O)(O)OP(=O)(O)O)[C@@H](OP(=O)(O)OP(=O)(O)O)[C@H]2O)c(=O)[nH]1 [pppGpp] |  | unable to hydrolyze |
